According to patent US6426355B1, “Heterocyclic carboxamide-containing thiourea inhibitors of herpes viruses containing phenylenediamine group” (American Home Products, priority 1998, dated 2002):
Converted amounts (≈) assume the structure as drawn.

Columns and labels:
VZV strain Ellen = assay: VZV Antiviral (ELISA) assay; format: cell-based; conditions: for IC50 (ug/ml) VZV / % inhibition 10 ug/ml VZV: VZV strain Ellen in HFF cells; for IC50: Human alphaherpesvirus 3, VZV strain Ellen in HFF cells, read-out: IC50 (ug/ml) VZV; for % inhibition 10 ug/ml VZV: at 10 ug/ml
Method in brief: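 Cell-based VZV (Ellen) spread assay in HFF, 3-day compound exposure in 2% FBS medium. Viral antigen quantified by fluorescent β-galactosidase ELISA; IC50 from inhibition of signal.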

[1] = test system: HCMV recombinant mutant virus (RV145); assay: HCMV microtiter plate assay (beta-glucuronidase reporter); format: cell-based, Human Cytomegalovirus; conditions: for IC50 (ug/ml) HCMV: HCMV in human foreskin fibroblasts; for IC50: Human betaherpesvirus 5, Fibroblast, read-out: IC50 (ug/ml) HCMV
Method in brief: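 Human foreskin fibroblasts were infected with RV145 in the presence of inhibitor. β-glucuronidase under a viral promoter served as the replication marker. At 96 h post-infection, lysates in pH 7.0 phosphate with Triton X-100/sarkosyl were assayed colorimetrically or fluorometrically, and IC50 was estimated from varying inhibitor amounts.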

HSV-1 = assay: HSV Antiviral (ELISA) assay; format: cell-based; conditions: for IC50 (ug/ml) HSV: HSV-1 in Vero cells; for IC50: Human alphaherpesvirus 1, HSV-1 in Vero cells, read-out: IC50 (ug/ml) HSV
Method in brief: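 Vero cells in DMEM/2% FBS pretreated with compound 30 min before HSV-1 infection (MOI 0.006), then ~24 h at 37 °C. Viral gD detected by ELISA with β-galactosidase secondary and 4-methylumbelliferyl-galactoside (ex 365/em 450 nm); IC50 from fluorescence versus untreated infected cells.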

SMILES: CC(NC(=S)Nc1ccc(NC(=O)c2csnn2)cc1)c1ccccc1 (centres unmarked) [Example 588]
- IC50 (ug/ml) VZV (VZV strain Ellen): 0.36 µg/mL (≈ 0.939 µM)
- IC50 (ug/ml) HCMV [1]: 0.03 µg/mL (≈ 0.0782 µM)
- IC50 (ug/ml) HSV (HSV-1): >10 µg/mL

SMILES: CC(=O)Nc1ccc(NC(=S)Nc2cc(Cl)c(Cl)c(Cl)c2)cc1 [Example 986, N-{4-[3-(3,4,5-Trichloro-phenyl)-thioureido]-phenyl}-acetamide]
- inhibition at 10 µg/mL (VZV strain Ellen; Human alphaherpesvirus 3, read-out: % inhibition 10 ug/ml VZV, at 10 ug/ml, VZV strain Ellen in HFF cells): 5%
- IC50 [1]: 0.031 µg/mL (≈ 0.0798 µM)
- IC50 (HSV-1): > 10 µg/mL

SMILES: O=C(Nc1ccc(NC(=O)c2ccco2)cc1)Nc1cc(C(F)(F)F)cc(C(F)(F)F)c1 [Example 88, Furan-2-carboxylic acid {4-[3-(3,5-bis-trifluoromethyl-phenyl)-ureido]-phenyl}-amide]
- IC50 (VZV strain Ellen): 0.03 µg/mL (≈ 0.0656 µM)
- IC50 [1]: 0.013 µg/mL (≈ 0.0284 µM)
- IC50 (HSV-1): > 10 µg/mL

SMILES: Cc1ccc(NC(=S)Nc2ccc(NC(=O)c3ccco3)cc2)cc1Cl [Example 233]
- IC50 (ug/ml) VZV (VZV strain Ellen): >10 µg/mL
- % inhibition 10 ug/ml VZV (VZV strain Ellen): 30%
- IC50 (ug/ml) HCMV [1]: 0.09 µg/mL (≈ 0.233 µM)
- IC50 (ug/ml) HSV (HSV-1): >10 µg/mL

SMILES: CN(C)c1ccc(NC(=S)Nc2ccc(NC(=O)c3ccco3)cc2)cc1Cl [Example 330]
- IC50 (ug/ml) VZV (VZV strain Ellen): >10 µg/mL
- % inhibition 10 ug/ml VZV (VZV strain Ellen): 29%
- IC50 (ug/ml) HCMV [1]: 0.15 µg/mL (≈ 0.362 µM)
- IC50 (ug/ml) HSV (HSV-1): >10 µg/mL

SMILES: CCCCc1nc(C(=O)Nc2ccc(NC(=S)Nc3cc(C(F)(F)F)cc(C(F)(F)F)c3)cc2)cs1 [Example 1137, 2-Butyl-thiazole-4-carboxylic acid {4-[3-(3,5-bis-trifluoromethyl-phenyl)-thioureido]-phenyl}-amide]
- IC50 (VZV strain Ellen): 3.5 µg/mL (≈ 6.4 µM)
- IC50 [1]: 0.6 µg/mL (≈ 1.1 µM)
- IC50 (HSV-1): > 10 µg/mL

SMILES: Cc1ccc(CCNC(=S)Nc2ccc(NC(=O)c3ccco3)cc2)cc1 [Example 605]
- IC50 (ug/ml) VZV (VZV strain Ellen): 10 µg/mL (≈ 26.4 µM)
- IC50 (ug/ml) HCMV [1]: 0.062 µg/mL (≈ 0.163 µM)
- IC50 (ug/ml) HSV (HSV-1): >10 µg/mL

SMILES: COc1cc(OC)c(NC(=S)Nc2ccc(NC(=O)c3snnc3-c3ccoc3)cc2)cc1Cl [Example 288]
- IC50 (ug/ml) VZV (VZV strain Ellen): >10 µg/mL
- % inhibition 10 ug/ml VZV (VZV strain Ellen): 30%
- IC50 (ug/ml) HCMV [1]: 4 µg/mL (≈ 7.75 µM)
- IC50 (ug/ml) HSV (HSV-1): >10 µg/mL

SMILES: O=C(Nc1ccc(NC(=S)Nc2ccc3[nH]ncc3c2)cc1)c1ccco1 [Example 481]
- IC50 (ug/ml) VZV (VZV strain Ellen): >10 µg/mL
- % inhibition 10 ug/ml VZV (VZV strain Ellen): 32%
- IC50 (ug/ml) HCMV [1]: 0.5 µg/mL (≈ 1.32 µM)
- IC50 (ug/ml) HSV (HSV-1): >10 µg/mL

SMILES: COc1cc(NC(=S)Nc2ccc(NC(=O)c3ccco3)cc2)cc(OC)c1 [Example 467]
- IC50 (ug/ml) VZV (VZV strain Ellen): >15 µg/mL
- % inhibition 10 ug/ml VZV (VZV strain Ellen): 93%
- IC50 (ug/ml) HCMV [1]: 0.12 µg/mL (≈ 0.302 µM)
- IC50 (ug/ml) HSV (HSV-1): >10 µg/mL

SMILES: O=C(Nc1ccc(NC(=S)Nc2cccc(C(F)(F)F)c2)cc1)c1csnn1 [Example 457]
- IC50 (ug/ml) VZV (VZV strain Ellen): >10 µg/mL
- % inhibition 10 ug/ml VZV (VZV strain Ellen): 26%
- IC50 (ug/ml) HCMV [1]: 0.019 µg/mL (≈ 0.0449 µM)
- IC50 (ug/ml) HSV (HSV-1): >10 µg/mL

SMILES: COc1cc(OC)c(NC(=S)Nc2ccc(NC(=O)c3ccc(Cl)o3)cc2)cc1Cl [Example 163]
- IC50 (ug/ml) VZV (VZV strain Ellen): >10 µg/mL
- % inhibition 10 ug/ml VZV (VZV strain Ellen): 30%
- IC50 (ug/ml) HCMV [1]: 7 µg/mL (≈ 15 µM)
- IC50 (ug/ml) HSV (HSV-1): 3 µg/mL (≈ 6.43 µM)

SMILES: Nc1ccc(NC(=S)Nc2ccc(NC(=O)c3ccco3)cc2)cc1Cl [Example 421]
- IC50 (ug/ml) VZV (VZV strain Ellen): >10 µg/mL
- IC50 (ug/ml) HCMV [1]: 0.75 µg/mL (≈ 1.94 µM)
- IC50 (ug/ml) HSV (HSV-1): 8 µg/mL (≈ 20.7 µM)

SMILES: CC1CCCCN1CC(=O)Nc1ccc(NC(=S)Nc2ccc(NC(=O)c3ccco3)cc2)cc1Cl (centres unmarked) [Example 424]
- IC50 (ug/ml) VZV (VZV strain Ellen): 0.7 µg/mL (≈ 1.33 µM)
- % inhibition 10 ug/ml VZV (VZV strain Ellen): 103%
- IC50 (ug/ml) HCMV [1]: 0.09 µg/mL (≈ 0.171 µM)
- IC50 (ug/ml) HSV (HSV-1): 3 µg/mL (≈ 5.7 µM)
